Each structure is given as a SMILES string. Values after ≈ are worked out from the molar mass of the structure shown. Where a name gives a salt, the structure may show the parent alone.

Format in all cases: cell-based
For assay [1], the system named is Staphylococcus aureus SMITH. Briefly: Antibacterial spectrum, minimum growth inhibitory concentration (MIC), strain A. The note with it: 10^6 cells/ml, Japan Society of Chemotherapy method. Here is the method:
The antibacterial activity was determined by measuring minimum growth inhibitory concentrations (MICs) in accordance with the method designated by the Japan Society of Chemotherapy. A, B, C and D in the table indicate the following meanings: A: Staphylococcus aureus SMITH The test microorganisms were used at 10^6 cells/ml.

Assay [2] relates to Staphylococcus aureus SR 14 (R). Description: Antibacterial spectrum, minimum growth inhibitory concentration (MIC), strain B. The note with it: 10^6 cells/ml, Japan Society of Chemotherapy method. Here is the method:
The antibacterial activity was determined by measuring minimum growth inhibitory concentrations (MICs) in accordance with the method designated by the Japan Society of Chemotherapy.
A, B, C and D in the table indicate the following meanings:
B: Staphylococcus aureus SR 14 (R)
The test microorganisms were used at 10^6 cells/ml.

For assay [3], the system named is Escherichia coli EC-14. Description: Antibacterial spectrum, minimum growth inhibitory concentration (MIC), strain C. The note with it: EC14, 10^6 cells/ml, Japan Society of Chemotherapy method. Here is the method: The antibacterial activity was determined by measuring minimum growth inhibitory concentrations (MICs) in accordance with the method designated by the Japan Society of Chemotherapy. A, B, C and D in the table indicate the following meanings: C: Escherichia coli EC-14 The test microorganisms were used at 10^6 cells/ml.

In assay [4] the test system is Escherichia coli SR377 (R). Description: Antibacterial spectrum, minimum growth inhibitory concentration (MIC), strain D. Conditions: 10^6 cells/ml, Japan Society of Chemotherapy method. Here is the method: The antibacterial activity was determined by measuring minimum growth inhibitory concentrations (MICs) in accordance with the method designated by the Japan Society of Chemotherapy. A, B, C and D in the table indicate the following meanings: D: Escherichia coli SR377 (R). The test microorganisms were used at 10^6 cells/ml.

The MIC is the lowest concentration found to suppress growth. High values mean a less susceptible organism, low ones a more susceptible organism. In the case of `CO[C@H]1CN(c2c(F)c(N)c3c(=O)c(C(=O)O)cn(C4CC4)c3c2F)C[C@H]1N` (relative stereo) [Compound I-5, 1-Cyclopropyl-5-amino-6,8-difluoro-1,4-dihydro-7-(cis-3-amino-4-methoxy-1-pyrrolidinyl)-4-oxo-3-quinolinecarboxylic acid], the MIC in assay [1] came out at 0.02 µg/mL (≈ 0.0507 µM); in assay [2], 0.05 µg/mL (≈ 0.127 µM); in assay [3], 0.02 µg/mL (≈ 0.0507 µM); in assay [4], 0.05 µg/mL (≈ 0.127 µM).

On to `CN[C@@H]1CN(c2c(F)c(N)c3c(=O)c(C(=O)O)cn(C4CC4)c3c2F)C[C@@H]1OC` (relative stereo) [Compound I-11, 1-Cyclopropyl-5-amino-6,8-difluoro-1,4-dihydro-7-(cis-3-methylamino-4-methoxy-1-pyrrolidinyl)-4-oxo-3-quinolinecarboxylic acid], for which the MIC in assay [1] is 0.05 µg/mL (≈ 0.122 µM); in assay [2], 0.05 µg/mL (≈ 0.122 µM); in assay [3], 0.05 µg/mL (≈ 0.122 µM); in assay [4], 0.1 µg/mL (≈ 0.245 µM).

As to `CN[C@H]1CN(c2c(F)c(N)c3c(=O)c(C(=O)O)cn(C4CC4)c3c2F)C[C@H]1OC` [Compound I-1, (+)-1-Cyclopropyl-5-amino-6,8-difluoro-1,4-dihydro-7-(cis-3-methylamino-4-methoxy-1-pyrrolidinyl)-4-oxo-3-quinolinecarboxylic acid hydrochloride], the minimal inhibitory concentration (MIC) turned out to be 0.1 µg/mL in assay [1], 0.1 µg/mL in assay [2], 0.1 µg/mL in assay [3] and 0.2 µg/mL in assay [4].

`CN[C@@H]1CN(c2c(F)c(N)c3c(=O)c(C(=O)O)cn(C4CC4)c3c2F)C[C@@H]1OC.Cl` [Compound I-2, (-)-1-Cyclopropyl-5-amino-6,8-difluoro-1,4-dihydro-7-(cis-3-methylamino-4-methoxy-1-pyrrolidinyl)-4-oxo-3-quinolinecarboxylic acid hydrochloride]: the minimal inhibitory concentration (MIC) amounted to 0.05 µg/mL in assay [1], 0.05 µg/mL in assay [2], 0.05 µg/mL in assay [3] and 0.1 µg/mL in assay [4].

Regarding `CO[C@@H]1CN(c2c(F)c(N)c3c(=O)c(C(=O)O)cn(C4CC4)c3c2F)C[C@@H]1N` [Compound I-3, (+)-1-Cyclopropyl-5-amino-6,8-difluoro-1,4-dihydro-7-(cis-3-amino-4-methoxy-1-pyrrolidinyl)-4-oxo-3-quinolinecarboxylic acid hydrochloride], the MIC in assay [1] stood at 0.05 µg/mL; in assay [2], 0.05 µg/mL; in assay [3] it was 0.02 µg/mL; in assay [4], 0.1 µg/mL.

For `CO[C@H]1CN(c2c(F)c(N)c3c(=O)c(C(=O)O)cn(C4CC4)c3c2F)C[C@H]1N` [Compound I-4, (-)-1-Cyclopropyl-5-amino-6,8-difluoro-1,4-dihydro-7-(cis-3-amino-4-methoxy-1-pyrrolidinyl)-4-oxo-3-quinolinecarbxylic acid hydrochloride], the minimal inhibitory concentration (MIC) amounted to 0.02 µg/mL in assay [1], 0.02 µg/mL in assay [2], 0.02 µg/mL in assay [3] and 0.05 µg/mL in assay [4].

On to `CC1COc2c(N3CCN(C)CC3)c(F)cc3c(=O)c(C(=O)O)cn1c23` (stereo not shown) [OFLX, ofloxacin, reference compound], for which the MIC was 0.2 µg/mL (≈ 0.553 µM) in assay [1], 0.4 µg/mL (≈ 1.11 µM) in assay [2], 0.1 µg/mL (≈ 0.277 µM) in assay [3] and 0.1 µg/mL (≈ 0.277 µM) in assay [4].

Source of the values: patent US5106854A, “Quinolinecarboxylic acids” (Shionogi & Co., Ltd., priority 1988, dated 1992).
